# Source: US20190328691A1, “ANTIBIOTIC THERAPY” (Boulos & Cooper Pharmaceuticals Pty Ltd, priority 2015, published 2019)
# Values joined by “and” are separate entries in the source; they are usually repeats but may differ in a detail not shown here. Identical values can stand only once. Like-named read-outs stand apart in the source and are kept apart here.
# What was measured:
# [1] = test system: Staphylococcus aureus (ATCC 29213); assay: Checkerboard combination / MIC assay with S. aureus ATCC 29213; assay type: cell-based; conditions: S. aureus ATCC 29213; for MIC: Staphylococcus aureus, read-out: MIC of antibiotic alone
# Description: (§1) Colonies were suspended in PBS. The absorbance of each suspension was measured with a spectrophotometer, and then the suspension was adjusted to 1×10^6 CFU/mL. The testing inoculum was prepared within 20 minutes before adding to wells of the test plate. Final cellular density in the checkerboard assays was 5×10^5 CFU/mL.
# (§2) The combination effect of antibacterial substances administered together was evaluated by an in vitro checkerboard combination method with Staphylococcus aureus (ATCC 29213) and Staphylococcus aureus (BAA-1717). Ramizol and Chlopam were tested alone in 11 points by two-fold serial titration and in combination with different commercial antibiotics which were tested in a 7-point titration alone and in combination with Ramizol and Chlopam using the checkerboard technique as recommended by the Clinical & Laboratory Standards Institute (CLSI. Methods for Dilution In Antimicrobial Susceptibility Tests for Bacteria That Grow Aerobically; Approved Standard-Eighth Edition. CLSI document M07-A8 (ISBN 1-56238-689-1). Vol. 29 No. 2. Clinical and Laboratory Standards Institute, USA, 2009). The commercial antibiotics were also tested alone. Twenty-four checkerboard tests were performed.
# (§3) The starting concentration of Ramizol, Chlopam, and the commercial antibiotics was four fold of the MIC. The testing range for each combination was described in the following summary tables.
# (§4) Compound dilutions of Ramizol and Chlopam were performed in 100% DMSO and the final DMSO concentration in all test wells was 2%. Growth control wells also included 2% DMSO. CLSI protocol was followed for medium, inoculum preparation, and endpoint reading. The commercial antibiotics were dissolved and diluted in the CLSI specified diluent. The final inoculum count for each strain was 5×10^5 CFU/mL.
# Cefepime, Daptomycin, Linezolid, Mupirocin, Oxacillin and Vancomycin were also tested alone. Each test substance was dissolved and diluted in 100% DMSO or specified solvent. Each test substance dilution (2 μL) was added to 96 μL broth CAMHB. CAMHB seeded with S. aureus ATCC 29213 at 1×10^6 CFU/mL (100 μL) was then added to the plate to generate a final cell count at 5×10^5 CFU/mL.
# (§5) Assay plates were incubated and MIC endpoints were read as described in the MIC assay. FIC (Fraction Inhibitory Concentration) and FIC Index (FICI) values for each test condition and the average of FICI values of all pairwise combinations were calculated to determine if synergy or antagonism existed between the two substances. The FIC index was determined by calculating the sum of the ratios of MICs for both substances. Arithmetically, the FIC Index of a combination of Substance 1 and Substance 2 was defined as following: FICI=Σ[FIC(Substance 1)+FIC(Substance 2)]=[(MIC of Substance 1 in combination/MIC of Substance 1 alone)+(MIC of Substance 2 in combination/MIC of Substance 2 alone)]. Synergy is defined as the FICI (Σ)≤0.5; additivity as FICI (Σ)>0.5 to ≤1; indifference as FICI (Σ)>1 to ≤4; antagonism is defined as the FICI (Σ)>4 (Zinner and Blaser, J. Journal of Antimicrobial Chemotherapy (1986), 17, 1-5; Amin, et al BMC Complementary & Alternative Medicine (2015), 15, 59; Zuo, et al. Molecules (2011), 16, 9819-9826).
# [2] = test system: Staphylococcus aureus (BAA-1717); assay: Checkerboard combination / MIC assay with S. aureus BAA-1717 (MRSA); assay type: cell-based; conditions: for MIC: Staphylococcus aureus, ATCC BAA-1717 / BAA-1717, read-out: MIC of antibiotic alone
# Description: as §1, §2, §3, §4
# Each test substance was dissolved and diluted in 100% DMSO or specified solvent. Each test substance dilution (2 μL) was added to 96 μL broth CAMHB. CAMHB seeded with S. aureus BAA-1717 at 1×10^6 CFU/mL (100 μL) was then added to the plate to generate a final cell count at 5×10^5 CFU/mL.
# as §5
# [3] = ATCC29213, Table 4, checkerboard series with Chlopam
# [4] = ATCC29213, Table 7, checkerboard series with Ramizol
structure (smiles),measurement,setting,value
"O=C(O)Cc1ccc(/C=C/c2cc(/C=C/c3ccc(CC(=O)O)cc3)cc(/C=C/c3ccc(CC(=O)O)cc3)c2)cc1 [Chlopam, 2,2′,2″-{[(1E,1′E,1″E)-benzene-1,3,5-triyltris(ethene-2,1-diyl)]tris(benzene-4,1-diyl)}triacetic acid]",MIC,[1]; [3],0.5 µg/mL
same,MIC,"[2]; Table 4, checkerboard series with Chlopam, S. aureus ATCC BAA-1717",1 µg/mL
Cc1onc(-c2ccccc2)c1C(=O)N[C@@H]1C(=O)N2[C@@H]1SC(C)(C)[C@@H]2C(=O)O [Oxacillin],FICI of combination with Chlopam,[1]; Chlopam 0.003906 μg/mL + labelled antibiotic at MIC of same cell,1.0
same,MIC of antibiotic in combination with Chlopam,[1]; Chlopam 0.003906 μg/mL,0.5 µg/mL
same,FICI of combination with Chlopam,[1]; Chlopam 0.0078125 μg/mL + labelled antibiotic at MIC of same cell,1.0
same,MIC of antibiotic in combination with Chlopam,[1]; Chlopam 0.0078125 μg/mL,0.5 µg/mL
same,FICI of combination with Chlopam,[1]; Chlopam 0.015625 μg/mL + labelled antibiotic at MIC of same cell,1.0
same,MIC of antibiotic in combination with Chlopam,[1]; Chlopam 0.015625 μg/mL,0.5 µg/mL
same,FICI of combination with Chlopam,[1]; Chlopam 0.125 μg/mL + labelled antibiotic at MIC of same line,0.5 and 0.8
same,MIC of antibiotic in combination with Chlopam,[1]; Chlopam 0.125 μg/mL,0.125 µg/mL and 0.25 µg/mL
same,FICI of combination with Chlopam,[1]; Chlopam 0.25 μg/mL + labelled antibiotic at MIC of same cell,0.8
same,MIC of antibiotic in combination with Chlopam,[1]; Chlopam 0.25 μg/mL,0.125 µg/mL
same,FICI of combination with Chlopam,[1]; Chlopam 0.5 μg/mL + labelled antibiotic at MIC of same cell,1.0
same,MIC of antibiotic in combination with Chlopam,[1]; Chlopam 0.5 μg/mL,0.01563 µg/mL
same,Effect of individual antibiotic combinations of lower concentrations,[1]; Chlopam and Oxacillin: 0.0125 and 0.125 μg/mL,synergistic effect
same,FICI of combination with Ramizol,[1]; Ramizol 0.015625 μg/mL + labelled antibiotic at MIC of same cell,1.0
same,MIC of antibiotic in combination with Ramizol,[1]; Ramizol 0.015625 μg/mL,0.5 µg/mL
same,FICI of combination with Ramizol,[1]; Ramizol 0.03125 μg/mL + labelled antibiotic at MIC of same cell,1.0
same,MIC of antibiotic in combination with Ramizol,[1]; Ramizol 0.03125 μg/mL,0.5 µg/mL
same,FICI of combination with Ramizol,[1]; Ramizol 0.0625 μg/mL + labelled antibiotic at MIC of same cell,1.0
same,MIC of antibiotic in combination with Ramizol,[1]; Ramizol 0.0625 μg/mL,0.5 µg/mL
same,FICI of combination with Ramizol,[1]; Ramizol 0.125 μg/mL + labelled antibiotic at MIC of same cell,1.0
same,MIC of antibiotic in combination with Ramizol,[1]; Ramizol 0.125 μg/mL,0.5 µg/mL
same,FICI of combination with Ramizol,[1]; Ramizol 4 μg/mL + labelled antibiotic at MIC of same cell,1.0
same,MIC of antibiotic in combination with Ramizol,[1]; Ramizol 4 μg/mL,0.016 µg/mL
same,MIC,[1]; [3],0.5 µg/mL
same,MIC,[1]; [4],0.5 µg/mL
same,Effect of the combinations with Chlopam (by mean FICI),[1]; labelled antibiotic + Chlopam,additive effect
same,mean FICI of combination with Chlopam,"[1]; labelled antibiotic + Chlopam, mean of all pairwise combinations",1.0
same,mean FICI of combination with Ramizol,"[1]; labelled antibiotic + Ramizol, mean of all pairwise combinations",1.2
same,FICI of combination with Chlopam,"[2]; Chlopam 0.001953 μg/mL + labelled antibiotic at MIC of same cell, S. aureus ATCC BAA-1717",1.0
same,FICI of combination with Chlopam,"[2]; Chlopam 0.003906 μg/mL + labelled antibiotic at MIC of same cell, S. aureus ATCC BAA-1717",1.0
same,FICI of combination with Chlopam,"[2]; Chlopam 0.0078125 μg/mL + labelled antibiotic at MIC of same cell, S. aureus ATCC BAA-1717",1.0
same,FICI of combination with Ramizol,"[2]; Ramizol 0.015625 μg/mL + labelled antibiotic at MIC of same cell, S. aureus ATCC BAA-1717",1.0
same,FICI of combination with Ramizol,"[2]; Ramizol 0.03125 μg/mL + labelled antibiotic at MIC of same cell, S. aureus ATCC BAA-1717",1.0
same,FICI of combination with Ramizol,"[2]; Ramizol 0.0625 μg/mL + labelled antibiotic at MIC of same cell, S. aureus ATCC BAA-1717",1.0
same,mean FICI of combination with Chlopam,"[2]; labelled antibiotic + Chlopam, mean of all pairwise combinations, S. aureus ATCC BAA-1717",1.2
same,Effect of the combinations with Ramizol (by mean FICI),"[2]; labelled antibiotic + Ramizol, S. aureus BAA-1717",additive effect
same,mean FICI of combination with Ramizol,"[2]; labelled antibiotic + Ramizol, mean of all pairwise combinations, S. aureus ATCC BAA-1717",0.9
"O=C(O)c1ccc(/C=C/c2cc(/C=C/c3ccc(C(=O)O)cc3)cc(/C=C/c3ccc(C(=O)O)cc3)c2)cc1 [Ramizol, 1,3,5-Tris[(1E)-2′-(4″-benzoic acid)vinyl]benzene]",MIC,[1]; [4],4 µg/mL
same,MIC,"[2]; Table 7, checkerboard series with Ramizol, S. aureus ATCC BAA-1717",4 µg/mL
